From US9586901B2, “Lactams” (UNILEVER PLC, priority 2006, dated 2017) come the findings set out here.

Data set [1] deals with Staphylococcus epidermidis. Description: S. epidermidis growth inhibition (OD600 growth curves). In kind it is cell-based. Conditions: concentration of compound that significantly alters growth rate or final growth yield. As for the experimental part: The growth inhibition of Staphylococcus epidermidis by the compounds of the present invention was determined by growing S. epidermidis in 96 well microtitre plates in Trypticase Soy Broth plus 0.5% glucose in a Wallac Victor2 microplate reader. Each compound was added to the wells at different concentrations and a no-compound control and a set of blank wells were also used. The OD600 was measured hourly.

A further data set relates to V. fischeri luxRI system. Description: N-acylated homoserine lactone (AHL) quorum sensing assay, GFP reporter strain. In kind it is cell-based, E. coli. Conditions: for ID40 at 3 nM OHHL: Table 4, number in parentheses, amount of compound lowering relative activity to 40%. On the procedure:
Compounds of the present invention were compared to compounds of the prior art in order using an AHL-quorum sensing assay which utilises a reporter strain that expresses Green Fluorescent Protein (GFP) in the presence of AHL signals. The assay is performed by measuring GFP output in the presence of the compound to be measured and comparing the output to a control. By using multiple samples at varying concentrations of compound and AHL, an inhibition index of compound activity can be generated. The inhibition index used in the present example is the relative amount of compound required to reduce GFP expression to 40% of the control. The inhibition index is termed AIC40. Lower values of AIC40 represent better inhibitors of the AHL quorum sensing system.
The reporter strain of bacterium used in this assay is E. coli into which the V. fischeri luxRI system has been engineered. A gfp gene is fused to the QS controlled luxI promoter as is described in (Andersen et al., 2001, and Andersen et al, 1998).
Measurement of AIC40 (ID40 at 3 nM OHHL)
Determination of the activity of compounds using the E. coli based luxRI construct was performed as follows.
In a 15 mL plastic tube, mix 3 mL of o.n. culture of the lux reporter strain with 12 mL fresh medium, incubate at 37° C. Label six tubes, 10, 20, two 50 and two 100. To each of the tubes, add OHHL (3-oxohexanoyl homoserine lactone) to a final concentration of 10, 20, 50, or 100 nM respectively in the AB medium (add enough medium to distribute across the appropriate number of wells). To the first row of the microplate (row A), add 200 ul of the OHHL/AB mixture. To the remaining rows (B-H) add 100 ul of the OHHL/AB mixture. To the first row (A) add compounds to be tested to the 200 ul mixture of OHHL/AB. Make a dilution series in the first 7 rows by transferring 100 μL from wells in row 1 to wells in row 2 and so on. Discard the remaining 100 μL from row 7. Add 100 μL diluted lux monitor to each well. Incubate the plate 2 hours at 37° C. and measure green fluorescence using the “Victor” plate reader.
Calculate ID40 for each column. To do this, calculate the relative activity in each well. […] Make a plot for each concentration of OHHL vs. the range of compound concentrations used. Calculate the amount of compound needed to lower the relative activity to 40%, this is termed inhibiting dose 40%, ID40. For each compound an inhibition index, AIC40, is found as follows: plot ID40 against its respective AHL concentration; AIC40 is the slope of the best straight line through the plotted points and origin.
The methodology for this assay is set out in 2(a) above.

Another data set relates to LasR. Description: LasR assay (unstable gfp fused to the elastase promoter). Conditions: Pseudomonas aeruginosa, read-out: LasR (conc). In kind it is cell-based. On the procedure:
Compounds of the present invention were also assayed using a LasR assay. The LasR assay provides a measurement of quorum sensing inhibition activity. The higher the percentage inhibition. […] In the LasR assay, an unstable gfp has been fused to the elastase promoter, so that the amount of Gfp is regulated by the QS system. The plasmid is put into Pseudomonas aeruginosa which makes its own AHL signals. The assay is performed by adding the compounds to be tested to the system at the beginning of the experiment, at different concentrations. Gfp expression is measured at different times during growth, ending at the 24 h time point. The percentage fluorescence was determined at the time point when the fluorescence reached its maximum in the control, usually around 11-12 h after inoculation.

A further data set deals with P. aeruginosa biofilm. Description: Inhibition of biofilm formation in petri dishes, P. aeruginosa. Conditions: percent reduction of control. The data set is classed as cell-based. As for the experimental part:
(§1) Biofilm formation in petri dishes was measured using the following protocol as a compromise between flow cells and microtitire plate based assays. The method increases the number of replicates (relative to flow cells) that can be tested while still generating a biofilm that has typical structures, such as microcolonies, which are important as differentiated structures within the biofilm. The method consists of placing a surface, such as a glass slide (for unattached compounds) or a modified plastic coupon (for covalently attached compounds) on the bottom of a sterile petri dish and adding growth medium. The bacteria are inoculated into the dish and allowed to incubate at the appropriate temperature at 50 rpm. The medium is replaced at 24 h and allowed to incubate a further 24 h, after which time, the slides are removed and rinsed to remove loosely attached cells. For monitoring biofilm formation on glass slides, the cells are either stained with a suitable fluorescent stain and are visualised using the confocal microscope and the biofilm (as % surface coverage) is quantified, or the biofilm is stained with crystal violet, washed thoroughly to remove excess stain, and subsequently destained and the absorbance at […] is measured to determine the amount of biofilm, as a function of crystal violet staining.

A further data set concerns Murine L929 cells. Description: Cytotoxicity study, L929 cell number after 48 hour culture. In kind it is cell-based. Conditions: for Mean (cell number): L929, 48 hour; for % Inhibition: cell number vs non-challenged cultures. On the procedure:
Murine L929 cells are established at low density and, during the testing period, grow to confluency in plastic petri dishes. 24 hours after the dishes are inoculated, the medium on the test dishes is aspirated and replaced with a medium containing the compound to be tested. The cell monolayer is then cultured for a further 48 hour period. At the end of the test period, cells are harvested from the dishes and their numbers assessed and compared with unperturbed cultures. Differences in cell numbers are expressed as a percentage inhibition in comparison to non-challenged cultures.

The test system of a further data set is S. epidermidis biofilm. Description: Inhibition of biofilm formation in petri dishes, S. epidermidis. The data set is classed as cell-based. Conditions: percent reduction of control. On the procedure:
as §1

Setting [2] is: Table 4 comparative results, first number of the cell, lower = better.
Where [3] appears, read: inhibition index: slope of ID40 against AHL concentration, lower = better inhibitor, NE = no effect.
Setting [4] is: 40 μg/ml, 30% = cytotoxic potential.

Regarding `CC1(O)NC(=O)C=C1c1cccc(F)c1` (stereo not shown), the minimal effective concentration – broadly, the smallest amount tested that counted as effective – in data set [1] is over 100 µg/mL.
On the same count and under the same terms, for `COc1cccc(C2=CC(=O)NC2(C)O)c1` (stereo not shown) the value was over 50 µg/mL.
Consider `C=C1NC(=O)C=C1c1ccc(OC)cc1` [drawing 24], for which the “ID40 at 3 nM OHHL” value in the data set with V. fischeri luxRI system is listed as 61 nM. Also, the AIC40 in the data set on V. fischeri luxRI system (setting [2]) and with V. fischeri luxRI system (setting [3]) was 5.4 throughout. Further, the inhibition at 25 µg/mL in the data set on LasR came out at 36%. In the data set with P. aeruginosa biofilm (25 ug/ml), the P. aeruginosa biofilm is recorded as 76% (25 ug/ml).
For `C=C1NC(=O)C=C1c1cccc(C(F)(F)F)c1`, the AIC40 in the data set on V. fischeri luxRI system (setting [3]) turned out to be 4.6. The inhibition at 25 µg/mL with LasR is 40%. In addition, the minimal effective concentration in data set [1] turned out to be 0.5 µg/mL.
`C=C1NC(=O)C=C1c1cccc(F)c1` yielded an AIC40 in the data set with V. fischeri luxRI system (setting [3]) of 1.3. Moreover, the inhibition at 25 µg/mL in the data set with LasR came to 70%. Further, the minimal effective concentration in data set [1] was found to be 0.5 µg/mL.
As for `C=C1NC(=O)C=C1c1ccc(Br)cc1` [Compound 295], the AIC40 entry in the data set on V. fischeri luxRI system (setting [2]) is “significantly better AIC40 values than compounds 198 and 205”.
The same measure, in the same setting: for `C=C1NC(=O)C=C1c1ccc(F)cc1` [Compound 257] the value was “significantly better AIC40 values than compounds 198 and 205”.
On to `CCO` [Ethanol], for which the “Mean (cell number)” value worked out at 3.40E+05 in the data set with Murine L929 cells (4% Ethanol), 3.09E+05 in the data set on Murine L929 cells (5% Ethanol) and 7.63E+04 in the data set on Murine L929 cells (7.5% Ethanol). In addition, the % Inhibition (usually the change of the read-out against control, counted positive when it falls) with Murine L929 cells (4% Ethanol) is listed as 30.7%; with Murine L929 cells (5% Ethanol) it was 36.9%; in the data set on Murine L929 cells (7.5% Ethanol), 84.5%.
Regarding `COc1ccccc1C1=CC(=O)NC1(C)O` (stereo not shown), the inhibition at 100 µg/mL in the data set with LasR is 41%. The same compound had a minimal effective concentration in data set [1] of over 50 µg/mL.
With `C=C1NC(=O)C=C1c1ccccc1F`, the AIC40 in the data set on V. fischeri luxRI system (setting [3]) stood at 1.7. Further, in the data set with LasR, the inhibition at 25 µg/mL worked out at 60%. In addition, the minimal effective concentration in data set [1] worked out at 20 µg/mL. Besides, the S. epidermidis biofilm in the data set on S. epidermidis biofilm (0.3 ug/ml) is on record as 60% (0.3 ug/ml).
Compound `CCCC(O)C1=C(Br)/C(=C/Br)N(c2ccccc2)C1=O` (stereo not shown) [reference compound] gave an AIC40 in the data set with V. fischeri luxRI system (setting [2]) of 99.
The compound `C=C1NC(=O)C=C1c1ccc(C(F)(F)F)cc1` yielded an AIC40 in the data set with V. fischeri luxRI system (setting [3]) of 1. Besides, the inhibition at 25 µg/mL in the data set on LasR turned out to be 54%. Besides, the minimal effective concentration in data set [1] amounted to 1 µg/mL.
On to `CC(C)CN1C(=O)C=C(c2ccccc2)C1=C(Br)Br` [Compound 226], for which the “Mean (cell number)” value with Murine L929 cells (5 μg/ml) turned out to be 3.41E+05; with Murine L929 cells (10 μg/ml), 2.14E+05; in the data set with Murine L929 cells (20 μg/ml), 2.42E+05; in the data set with Murine L929 cells (40 μg/ml, E+05 = ×10^5), 1.67E+05. Further, the “% Inhibition” value in the data set with Murine L929 cells (5 μg/ml) is 21.8%; with Murine L929 cells (10 μg/ml), 50.9%; with Murine L929 cells (20 μg/ml) it was 44.4%; with Murine L929 cells (setting [4]) it was 61.6%.
With `C=C1NC(=O)C=C1c1ccc(OC)cc1` [Compound 294], the AIC40 result in the data set with V. fischeri luxRI system (setting [2]) is “significantly better AIC40 values than compounds 198 and 205”.
As for `CC1(O)NC(=O)C=C1Cc1ccccc1` (stereo not shown), in data set [1], the minimal effective concentration is over 100 µg/mL.
On to `C=C1C(c2ccccc2)=CC(=O)N1C`, for which the “ID40 at 3 nM OHHL” value in the data set with V. fischeri luxRI system (unit not given) turned out to be 163.26. For the same compound, the AIC40 with V. fischeri luxRI system (setting [2]) and in the data set on V. fischeri luxRI system (setting [3]) was 52.76 each time. Also, in the data set on LasR, the inhibition at 50 µg/mL turned out to be 40%.
For the compound `O=C1C=C(Br)/C(=C/Br)N1Cc1ccccc1` [reference compound], the AIC40 in the data set on V. fischeri luxRI system (setting [2]) was 27.
Regarding `C=C1NC(=O)C=C1c1ccc(F)cc1` [drawing 21], the “ID40 at 3 nM OHHL” value with V. fischeri luxRI system (unit not given) is listed as 17.61. The AIC40 with V. fischeri luxRI system (setting [2]) and with V. fischeri luxRI system (setting [3]) was 4.61 throughout. Besides, in the data set with LasR, the inhibition at 50 µg/mL was found to be 61%. This compound also had a minimal effective concentration in data set [1] of 20 µg/mL. Further, the P. aeruginosa biofilm in the data set on P. aeruginosa biofilm (12.5 ug/ml) is recorded as 78% (12.5 ug/ml). Further, in the data set on S. epidermidis biofilm (10 ug/ml), the S. epidermidis biofilm is given as 40% (10 ug/ml).
In the data set with V. fischeri luxRI system (setting [3]), `CC1(O)NC(=O)C=C1c1ccccc1F` (stereo not shown) came in with an AIC40 of 9.9. Moreover, in the data set on LasR, the inhibition at 100 µg/mL was found to be 40%. Further, in data set [1], the minimal effective concentration is over 100 µg/mL. The P. aeruginosa biofilm in the data set on P. aeruginosa biofilm (20 ug/ml) is listed as 12% (20 ug/ml). For the same compound, the S. epidermidis biofilm in the data set with S. epidermidis biofilm (50 ug/ml) was 17% (50 ug/ml).
In the case of `CC(C)CN1C(=O)C(c2ccccc2)=CC1=C(Br)Br` [Compound 223], the “Mean (cell number)” value with Murine L929 cells (10 μg/ml) came out at 3.31E+05; with Murine L929 cells (20 μg/ml), 2.94E+05; with Murine L929 cells (40 μg/ml, E+05 = ×10^5), 2.07E+05. Also, the “% Inhibition” value was determined as 24.1% with Murine L929 cells (10 μg/ml), 32.5% in the data set with Murine L929 cells (20 μg/ml) and 52.4% in the data set on Murine L929 cells (setting [4]).
Take `C=C1NC(=O)C=C1Cc1ccccc1`: the “ID40 at 3 nM OHHL” value with V. fischeri luxRI system (unit not given) is recorded as 239.79. Moreover, the AIC40 in the data set on V. fischeri luxRI system (setting [2]) and in the data set with V. fischeri luxRI system (setting [3]) was 69.45 throughout. The inhibition at 50 µg/mL with LasR stood at 61%.
Turning to `CC1(O)NC(=O)C=C1c1ccc(F)cc1` (stereo not shown), in the data set on LasR, the inhibition at 100 µg/mL was determined as 28%. In data set [1], this compound came in with a minimal effective concentration of 100 µg/mL.
